Test results from ChEMBL document CHEMBL3046898, “Synthesis and characterization of flurbiprofen hydrazide derivatives as potential anti-HCV, anticancer and antimicrobial agents” (2013).
Calls of active or inactive are those of the source. The calls are words filed in the database; no cut-off is given here.

What was measured:
Klebsiella aerogenes [1] = experiment: Antibacterial activity against Enterobacter aerogenes at 6.25 to 200 ug/ml after 24 hrs by microwell dilution method; format: functional, organism-based
[2] = system: Schwanniomyces occidentalis; experiment: Antifungal activity against Schwanniomyces occidentalis at 10 mg/ml after 48 hrs by disc diffusion method; format: functional, organism-based
Escherichia coli [3] = experiment: Antibacterial activity against Escherichia coli at 6.25 to 200 ug/ml after 24 hrs by microwell dilution method; format: functional, organism-based
Proteus vulgaris [4] = experiment: Antibacterial activity against Proteus vulgaris at 10 mg/ml after 24 hrs by disc diffusion method; format: functional, organism-based
Proteus vulgaris [5] = experiment: Antibacterial activity against Proteus vulgaris at 6.25 to 200 ug/ml after 24 hrs by microwell dilution method; format: functional, organism-based
Kluyveromyces marxianus = experiment: Antifungal activity against Kluyveromyces marxianus at 10 mg/ml after 48 hrs by disc diffusion method; format: functional, organism-based
Candida albicans = experiment: Antifungal activity against Candida albicans at 10 mg/ml after 48 hrs by disc diffusion method; format: functional, organism-based
Salmonella paratyphi [6] = experiment: Antibacterial activity against Salmonella paratyphi at 10 mg/ml after 24 hrs by disc diffusion method; format: functional, organism-based; details: Salmonella enterica subsp. enterica serovar Paratyphi A
Photorhabdus luminescens [7] = experiment: Antibacterial activity against Photorhabdus luminescens at 10 mg/ml after 24 hrs by disc diffusion method; format: functional, organism-based
Nakaseomyces glabratus = experiment: Antifungal activity against Candida glabrata at 10 mg/ml after 48 hrs by disc diffusion method; format: functional, organism-based
Micrococcus lylae [8] = experiment: Antibacterial activity against Micrococcus lylae at 6.25 to 200 ug/ml after 24 hrs by microwell dilution method; format: functional, organism-based
[9] = system: Acinetobacter radioresistens; experiment: Antibacterial activity against Acinetobacter radioresistens at 6.25 to 200 ug/ml after 24 hrs by microwell dilution method; format: functional, organism-based
Aspergillus = experiment: Antifungal activity against Aspergillus at 10 mg/ml after 72 hrs by disc diffusion method; format: functional, organism-based
Micrococcus lylae [10] = experiment: Antibacterial activity against Micrococcus lylae at 10 mg/ml after 24 hrs by disc diffusion method; format: functional, organism-based
Klebsiella aerogenes [11] = experiment: Antibacterial activity against Enterobacter aerogenes at 10 mg/ml after 24 hrs by disc diffusion method; format: functional, organism-based
Staphylococcus cohnii [12] = experiment: Antibacterial activity against Staphylococcus cohnii at 6.25 to 200 ug/ml after 24 hrs by microwell dilution assay; format: functional, organism-based
Salmonella paratyphi [13] = experiment: Antibacterial activity against Salmonella paratyphi at 6.25 to 200 ug/ml after 24 hrs by microwell dilution method; format: functional, organism-based; details: Salmonella enterica subsp. enterica serovar Paratyphi A
Pseudomonas aeruginosa [14] = experiment: Antibacterial activity against Pseudomonas aeruginosa at 6.25 to 200 ug/ml after 24 hrs by microwell dilution method; format: functional, organism-based
Micrococcus luteus [15] = experiment: Antibacterial activity against Micrococcus luteus at 6.25 to 200 ug/ml after 24 hrs by microwell dilution method; format: functional, organism-based
Escherichia coli [16] = experiment: Antibacterial activity against Escherichia coli at 10 mg/ml after 24 hrs by disc diffusion method; format: functional, organism-based
Staphylococcus aureus [17] = experiment: Antibacterial activity against Staphylococcus aureus at 10 mg/ml after 24 hrs by disc diffusion method; format: functional
Micrococcus luteus [18] = experiment: Antibacterial activity against Micrococcus luteus at 10 mg/ml after 24 hrs by disc diffusion method; format: functional, organism-based
Pichia membranifaciens = experiment: Antifungal activity against Pichia membranifaciens at 10 mg/ml after 48 hrs by disc diffusion method; format: functional, organism-based
Staphylococcus aureus [19] = experiment: Antibacterial activity against Staphylococcus aureus at 6.25 to 200 ug/ml after 24 hrs by microwell dilution assay; format: functional, organism-based
Candida parapsilosis = experiment: Antifungal activity against Candida parapsilosis at 10 mg/ml after 48 hrs by disc diffusion method; format: functional, organism-based
Photorhabdus luminescens [20] = experiment: Antibacterial activity against Photorhabdus luminescens at 6.25 to 200 ug/ml after 24 hrs by microwell dilution method; format: functional, organism-based
Pseudomonas aeruginosa [21] = experiment: Antibacterial activity against Pseudomonas aeruginosa at 10 mg/ml after 24 hrs by disc diffusion method; format: functional, organism-based
Candida tropicalis = experiment: Antifungal activity against Candida tropicalis at 10 mg/ml after 48 hrs by disc diffusion method; format: functional, organism-based
[22] = system: Acinetobacter radioresistens; experiment: Antibacterial activity against Acinetobacter radioresistens at 10 mg/ml after 24 hrs by disc diffusion method; format: functional, organism-based
Staphylococcus cohnii [23] = experiment: Antibacterial activity against Staphylococcus cohnii at 10 mg/ml after 24 hrs by disc diffusion method; format: functional
Hepacivirus hominis = experiment: Inhibition of HCV N-terminal His-tagged NS5B RNA dependent RNA polymerase expressed in Escherichia coli DH5alpha using poly rA/U12 as primer at 200 uM after 60 mins by liquid scintillation counting

CCNC(=S)NNC(=O)C(C)c1ccc(-c2ccccc2)c(F)c1 (stereo not given)
Activity (Klebsiella aerogenes [1]): inactive | Activity [2]: inactive | Activity (Escherichia coli [3]): inactive | Activity (Proteus vulgaris [4]): inactive | Activity (Proteus vulgaris [5]): inactive | Activity (Kluyveromyces marxianus): inactive | Activity (Candida albicans): inactive | Activity (Salmonella paratyphi [6]): inactive | Activity (Photorhabdus luminescens [7]): inactive | Activity (Nakaseomyces glabratus): inactive | Activity (Micrococcus lylae [8]): inactive | Activity [9]: inactive | Activity (Aspergillus): inactive | Activity (Micrococcus lylae [10]): inactive | Activity (Klebsiella aerogenes [11]): inactive | Activity (Staphylococcus cohnii [12]): inactive | Activity (Salmonella paratyphi [13]): inactive | Activity (Pseudomonas aeruginosa [14]): inactive | Activity (Micrococcus luteus [15]): inactive | Activity (Escherichia coli [16]): inactive | Activity (Staphylococcus aureus [17]): inactive | Activity (Micrococcus luteus [18]): inactive | Activity (Pichia membranifaciens): inactive | Activity (Staphylococcus aureus [19]): inactive | Activity (Candida parapsilosis): inactive | Activity (Photorhabdus luminescens [20]): inactive | Activity (Pseudomonas aeruginosa [21]): inactive | Activity (Candida tropicalis): inactive | Activity [22]: inactive | Activity (Staphylococcus cohnii [23]): inactive | inhibition (Hepacivirus hominis): 8%

C=CCNC(=S)NNC(=O)C(C)c1ccc(-c2ccccc2)c(F)c1 (stereo not given)
Activity (Klebsiella aerogenes [1]): inactive | Activity [2]: inactive | Activity (Escherichia coli [3]): inactive | Activity (Proteus vulgaris [4]): inactive | Activity (Proteus vulgaris [5]): inactive | Activity (Kluyveromyces marxianus): inactive | Activity (Candida albicans): inactive | Activity (Salmonella paratyphi [6]): inactive | Activity (Photorhabdus luminescens [7]): inactive | Activity (Nakaseomyces glabratus): inactive | Activity (Micrococcus lylae [8]): inactive | Activity [9]: inactive | Activity (Aspergillus): inactive | Activity (Micrococcus lylae [10]): inactive | Activity (Klebsiella aerogenes [11]): inactive | Activity (Staphylococcus cohnii [12]): inactive | Activity (Salmonella paratyphi [13]): inactive | Activity (Pseudomonas aeruginosa [14]): inactive | Activity (Micrococcus luteus [15]): inactive | Activity (Escherichia coli [16]): inactive | Activity (Staphylococcus aureus [17]): inactive | Activity (Micrococcus luteus [18]): inactive | Activity (Pichia membranifaciens): inactive | Activity (Staphylococcus aureus [19]): inactive | Activity (Candida parapsilosis): inactive | Activity (Photorhabdus luminescens [20]): inactive | Activity (Pseudomonas aeruginosa [21]): inactive | Activity (Candida tropicalis): inactive | Activity [22]: inactive | Activity (Staphylococcus cohnii [23]): inactive | inhibition (Hepacivirus hominis): 8%

CC(C(=O)N/N=C/c1ccc(Cl)cc1)c1ccc(-c2ccccc2)c(F)c1 (stereo not given)
Activity (Klebsiella aerogenes [1]): inactive | Activity [2]: inactive | Activity (Escherichia coli [3]): inactive | Activity (Proteus vulgaris [4]): inactive | Activity (Proteus vulgaris [5]): inactive | Activity (Kluyveromyces marxianus): inactive | Activity (Candida albicans): inactive | Activity (Salmonella paratyphi [6]): inactive | Activity (Photorhabdus luminescens [7]): inactive | Activity (Nakaseomyces glabratus): inactive | Activity (Micrococcus lylae [8]): inactive | Activity [9]: inactive | Activity (Aspergillus): inactive | Activity (Micrococcus lylae [10]): inactive | Activity (Klebsiella aerogenes [11]): inactive | Activity (Staphylococcus cohnii [12]): inactive | Activity (Salmonella paratyphi [13]): inactive | Activity (Pseudomonas aeruginosa [14]): inactive | Activity (Micrococcus luteus [15]): inactive | Activity (Escherichia coli [16]): inactive | Activity (Staphylococcus aureus [17]): inactive | Activity (Micrococcus luteus [18]): inactive | Activity (Pichia membranifaciens): inactive | Activity (Staphylococcus aureus [19]): inactive | Activity (Candida parapsilosis): inactive | Activity (Photorhabdus luminescens [20]): inactive | Activity (Pseudomonas aeruginosa [21]): inactive | Activity (Candida tropicalis): inactive | Activity [22]: inactive | Activity (Staphylococcus cohnii [23]): inactive | inhibition (Hepacivirus hominis): 8%

CCCNC(=S)NNC(=O)C(C)c1ccc(-c2ccccc2)c(F)c1 (stereo not given)
Activity (Klebsiella aerogenes [1]): inactive | Activity [2]: inactive | Activity (Escherichia coli [3]): inactive | Activity (Proteus vulgaris [4]): inactive | Activity (Proteus vulgaris [5]): inactive | Activity (Kluyveromyces marxianus): inactive | Activity (Candida albicans): inactive | Activity (Salmonella paratyphi [6]): inactive | Activity (Photorhabdus luminescens [7]): inactive | Activity (Nakaseomyces glabratus): inactive | Activity (Micrococcus lylae [8]): inactive | Activity [9]: inactive | Activity (Aspergillus): inactive | Activity (Micrococcus lylae [10]): inactive | Activity (Klebsiella aerogenes [11]): inactive | Activity (Staphylococcus cohnii [12]): inactive | Activity (Salmonella paratyphi [13]): inactive | Activity (Pseudomonas aeruginosa [14]): inactive | Activity (Micrococcus luteus [15]): inactive | Activity (Escherichia coli [16]): inactive | Activity (Staphylococcus aureus [17]): inactive | Activity (Micrococcus luteus [18]): inactive | Activity (Pichia membranifaciens): inactive | Activity (Staphylococcus aureus [19]): inactive | Activity (Candida parapsilosis): inactive | Activity (Photorhabdus luminescens [20]): inactive | Activity (Pseudomonas aeruginosa [21]): inactive | Activity (Candida tropicalis): inactive | Activity [22]: inactive | Activity (Staphylococcus cohnii [23]): inactive | inhibition (Hepacivirus hominis): 8%

CC(C(=O)NN1C(=O)CSC1c1ccc([N+](=O)[O-])cc1)c1ccc(-c2ccccc2)c(F)c1 (stereo not given)
Activity (Klebsiella aerogenes [1]): inactive | Activity [2]: inactive | Activity (Escherichia coli [3]): inactive | Activity (Proteus vulgaris [4]): inactive | Activity (Proteus vulgaris [5]): inactive | Activity (Kluyveromyces marxianus): inactive | Activity (Candida albicans): inactive | Activity (Salmonella paratyphi [6]): inactive | Activity (Photorhabdus luminescens [7]): inactive | Activity (Nakaseomyces glabratus): inactive | Activity (Micrococcus lylae [8]): inactive | Activity [9]: inactive | Activity (Aspergillus): inactive | Activity (Micrococcus lylae [10]): inactive | Activity (Klebsiella aerogenes [11]): inactive | Activity (Staphylococcus cohnii [12]): inactive | Activity (Salmonella paratyphi [13]): inactive | Activity (Pseudomonas aeruginosa [14]): inactive | Activity (Micrococcus luteus [15]): inactive | Activity (Escherichia coli [16]): inactive | Activity (Staphylococcus aureus [17]): inactive | Activity (Micrococcus luteus [18]): inactive | Activity (Pichia membranifaciens): inactive | Activity (Staphylococcus aureus [19]): inactive | Activity (Candida parapsilosis): inactive | Activity (Photorhabdus luminescens [20]): inactive | Activity (Pseudomonas aeruginosa [21]): inactive | Activity (Candida tropicalis): inactive | Activity [22]: inactive | Activity (Staphylococcus cohnii [23]): inactive | inhibition (Hepacivirus hominis): 8%
